Test results taken from US4648996A, “Phenyl substituted-2,4,6,8-nonatetraenoic acid” (Hoffmann-La Roche Inc., priority 1985, dated 1987).
Where two headings read alike, the source gives them in different places.

Legend:
[1] = tested on: adjuvant arthritis in rats; assay: Chronic adjuvant arthritis test (Table I); type: in vivo, male Charles River Lewis rats; conditions: for change in vivo at 75 µmol/kg / change in vivo at 96 µmol/kg / change in vivo at 76 µmol/kg / change in vivo at 60 µmol/kg: Rattus norvegicus, 552 h, day 23; for Body Weight Gain: vehicle 28-31
Description: That the compounds of this invention are effective anti-arthritic agents can be seen from the results obtained when these compounds are administered to rats in accordance with the chronic adjuvant arthritis test system disclosed in Billingham and Davies "Handbook of Experimental Pharmacology" (editors J. R. Vane and S. H. Ferreira) Vol. 50/II, pg. 108-144, Springer-Verlag, Berlin, 1979).
In this procedure, adjuvant arthritis was induced by the subplantar injection on day 0 of 0.05 ml of adjuvant [a suspension of heat-killed, dessicated Mycobacterium butyricum, 0.5% (w/v), in heavy mineral oil containing 0.2% digitonin] into the right hind paw of male Charles River Lewis rats (120-140 g) that were housed individually and given food and water ad lib. Paw volumes (both hind paws) were measured immediately after injection of the adjuvant. Paw Volumes were also measured, to follow the development of inflammation-induced swelling in the arthritic paws, at intervals of 3 to 7 days by immersion of the paw to the level of the lateral malleolus in a mercury plethysmograph.
Drugs were administered once a day (starting on the day of adjuvant injection) by […] using Tween 80 (polyoxyethylene sorbitan mono-oleate) at a dose of 0.25 ml/100 g body weight as the vehicle. Arthritic control rats received daily doses of the vehicle only. On day 23-25, the rats were sacrificed, plasma collected and plasma fibrinogen levels determined (ammonium sulfate turbidimetric method) as described by Exner et al., Amer. J. Clin Path, 71:521-527 (1979). Anti-inflammatory activity of the test drugs were determined by comparing the extent of paw swelling (paw volume on a particular day, i.e. day four to day twenty-five, minus the paw volume on day 0) in drug-treated arthritic rats with the extent of paw swelling in the vehicle-treated arthritic rats. Drug induced decreases in the level of plasma fibrinogen, an acute phase protein that is elevated in the plasma of rats with adjuvant-induced arthritis, were also used to quantitate the anti-inflammatory activity.

[2] = tested on: impregnated sponge granuloma in the rat; assay: Impregnated sponge granuloma test in the rat; type: in vivo, AHH/R female rats (PVG derived)
Description: AHH/R female rats (PVG derived) with an initial weight range of 120-140 g. were used.
Sponge preparation. Pellets (6.5 mm diameter) were punched from cellulose sponge cloth ("Wettex") and 0.1 ml. of a suspension containing 0.5 mg.ml^-1 of heat killed M. tuberculosis (human strains C, DT and PN) in sterile saline was applied to each pellet. The pellets were dried, weighed and autoclaved.
Rats were randomly divided into groups of five and daily dosing with test compounds was commenced. After the fifth dose the rats were anaesthetised with Sagatal (45 mg.kg^-1 i.p.) the backs were shaved and two pellets were implanted subcutaneously (one each side) into each rat through a small dorsal midline incision. The incision was closed and the rats allowed to recover from the anaesthetic.
Seven days after implantation the rats were killed and the pellets were removed, dissected free of extraneous tissue and weighed. Each pellet was then placed in a 4 ml aliquot of distilled water, chopped with fine scissors and sonicated. After centrifugation the Na^+ and K^+ content of the supernatant was determined by flame photometry. In addition the adrenal and thumus glands from each rat were dissected out and weighed and the lower hind limbs were removed for measurement of tibial bone breaking strain. Body weights were also recorded throughout the test period.
The mean ± SE for each of the parameters was calculated and differences from the control values were determined by Student's t test (2-tailed). Percentage reductions of granuloma weight, Na^+ and K^+ content and percentage changes of adrenal and thymus, weight and tibial breaking strain were determined.

[3] = tested on: MBSA delayed hypersensitivity in mice; assay: Delayed hypersensitivity to methylated bovine serum albumin (MBSA); type: in vivo, Male and female MFI mice substrain E33; conditions: 10 mg.kg^-1 oral
Description: Male and female MFI mice substrain E33. Initial weight approximately 25 gm.
Dosing with vehicle and retinoid commenced on day 0 and finished on day 9.
Each group consisted of 4 male and 6 female mice (separately caged). Drugs were dosed orally at a dose volume of 10 ml.kg^-1 (10 doses).

[4] = tested on: adjuvant arthritis in the rat; assay: Developing adjuvant arthritis in the rat; type: in vivo, AHH/R Female rats (PVG derived); conditions: 15 mg.kg^-1 p.o.
Description: AHH/R Female rats (PVG derived with an initial weight range of 110 to 140 g. were used.
Adjuvant for injection. An homogenized suspension of heat killed M tuberculosis (Human strains C, DT and PN), 5 mg.Ml^-1 in liquid paraffin was prepared.
Rats were randomly split into groups of five and adjuvant arthritis was induced by the sub-plantar injection of 0.1 ml of adjuvant suspension into the right hind paw of each rat. Test compounds were administered by intubation each morning commencing the day of adjuvant injection. Two groups of control rats were dosed with the vehicle as was a group of three normal rats included for comparative purposes. Dosing was carried out daily until the end of the test on day 15 except for the first weekend (days 5 & 6). Treatment groups are shown in Table III and include etretinate as standard retinoid.
Measurements of right hind paw volume were made initially and on days 2 and 4 after and adjufant injection (primary phase). Right and left hind paw volume were then measured, on day 8 and every two or three days until the end of the experiment on day 15 (secondary phase). At this time the mobility of each ankle joint and the incidence and severity of secondary lesions on nose, ears, forepaws, left hind paw and tail were also assessed in terms of degrees of flexion possible and by using an arbitrary scoring system, respectively.
The time course curves for the injected paws were integrated from days 0 to 4 to reflect primary swelling and from days 8 to 15 (secondary swelling). The secondary swelling in the non-injected paw was integrated similarly from days 8 to 15. Calculations were carried out using a specific computer program which computed mean ± se for each integrated area. The significance of differences from controls was determined by Student's t test (2 tailed) and percentage reductions from control areas were calculated. Percentage improvements in joint mobility and percentage reductions in lesion score were also determined. In the latter case the Wilcoxon rank sum test (2 tailed) was used to express the difference from the control score using raw data. Mean body weight change in each group was recorded.

[5] = tested on: established adjuvant arthritis in rats; assay: Effect on the course of established adjuvant arthritis; type: in vivo, Male Lewis rats from Charles River; conditions: 1 mg/kg, 7 days
Description: Male Lewis rats from Charles River were used for these experiments.
Heat-killed, dessicated Mycobacteriam butyricum.
Adjuvant arthritis was induced by the injection of 0.1 ml of adjuvant [a suspension of heat-killed, dessicated Mycobacterium butyricum, 0.5% CW/V) in heavy mineral oil containing 0.2% digitonin] into the base of the tail. The arthritis was allowed to develop for 21 days and then the volume of both hind paws were measured using a mercury plethysmograph. The rats were divided into groups of 8 with equal mean paw volumes and then the rats were treated with Compound A, indomethacin (as a control drug), or vehicle for 7 days at the end of the treatment period, the volumes of both hind paws were again measured to assess antiinflammatory effects. Body weight changes were also followed and, at the end of the experiment, plasma was collected for determination of plasma fibrinogen (Exner et. al., Amer. J. Clin. Path, 71: 521-527).
^b Drugs were administered once a day for 7 days by intubation
^c Change in paw volume/body weight equals paw volume body weight on […]

[6] = oral 75 μMol/Kg, read-out: % Reduction in Paw Volume, Left
[7] = oral 75 μMol/Kg, read-out: % Reduction in Paw Volume, Right

SMILES: CCCCCCCCCOc1ccc(OC)cc1/C=C/C(C)=C/C=C/C(C)=C/C(=O)O
- change in vivo at 75 µmol/kg [1, 6]: -24%
- change in vivo at 75 µmol/kg [1, 7]: -27%
- Plasma fibrinogen % change (reduction) ([1]; oral 75 μMol/Kg): -21%
- Body Weight Gain ([1]; oral 75 μMol/Kg): +27 g

SMILES: CCCCCCCCNc1ccccc1/C=C/C(C)=C/C=C/C(C)=C/C(=O)OCC
- change in vivo at 75 µmol/kg [1, 6]: -53%
- change in vivo at 75 µmol/kg [1, 7]: -53%
- Body Weight Gain ([1]; oral 75 μMol/Kg): +24 g

SMILES: CCCCCCCCCOc1cccc(Cl)c1/C=C/C(C)=C/C=C/C(C)=C/C(=O)O
- change in vivo at 75 µmol/kg [1, 6]: -32%
- change in vivo at 75 µmol/kg [1, 7]: -29%
- Body Weight Gain ([1]; oral 75 μMol/Kg): +35 g

SMILES: CC(/C=C/c1ccccc1OCCCCCCCCO)=C\C=C\C(C)=C\C(=O)O
- change in vivo at 96 µmol/kg ([1]; oral 96 μMol/Kg, read-out: % Reduction in Paw Volume, Left): -49%
- change in vivo at 96 µmol/kg ([1]; oral 96 μMol/Kg, read-out: % Reduction in Paw Volume, Right): -37%
- Plasma fibrinogen % change (reduction) ([1]; oral 96 μMol/Kg): -35%
- Body Weight Gain ([1]; oral 96 μMol/Kg): +27 g

SMILES: CCCCCCCCCOc1cccc(F)c1/C=C/C(C)=C/C=C/C(C)=C/C(=O)O
- change in vivo at 75 µmol/kg [1, 6]: -68%
- change in vivo at 75 µmol/kg [1, 7]: -56%
- Plasma fibrinogen % change (reduction) ([1]; oral 75 μMol/Kg): -51%
- Body Weight Gain ([1]; oral 75 μMol/Kg): +46 g

SMILES: C[C@@H]1C[C@H]2[C@@H]3CCC4=CC(=O)C=C[C@]4(C)[C@@]3(F)[C@@H](O)C[C@]2(C)[C@@]1(O)C(=O)CO [Dexamethasone]
- % reduction of granuloma K+ ([2]; 0.5 mg.kg^-1 sc): 75.2%
- % reduction of granuloma Na+ ([2]; 0.5 mg.kg^-1 sc): 51.2%
- % reduction of granuloma Wet weight ([2]; 0.5 mg.kg^-1 sc): 65.5%

SMILES: CCOC(=O)/C=C(C)/C=C/C=C(C)/C=C/c1c(C)cc(OC)c(C)c1C [Etretinate, reference compound]
- % increase paw volume ([3]; 10 doses): 59 ± 9%
- % reduction (cf. arachis oil control) ([3]; 10 doses): 46%
- Mean body weight change ([3]; female (F)): -2.0 g
- Mean body weight change ([3]; male (M)): -0.8 g
- Body Weight Change Days 0-15 [4]: +1.0 g
- Body Weight Change Days 8-15 [4]: -5.0 g
- Joint Mobility (% INC) ([4]; day 15): 50%
- Lesion Score (% RDN) ([4]; day 15): 56%
- % reduction of paw swelling, Primary (right) ([4]; days 0-4): 9%
- % reduction of paw swelling, Secondary (left) ([4]; days 8-15): 67%
- % reduction of paw swelling, Secondary (right) ([4]; days 8-15): 30%
- % change in adrenal weight ([2]; 15 mg.kg^-1 p.o.): +22.9%
- % change in thymus weight ([2]; 15 mg.kg^-1 p.o.): +15.2%
- % change in tibial breaking strains ([2]; 15 mg.kg^-1 p.o.): -4.6%
- % reduction of granuloma K+ ([2]; 15 mg.kg^-1 p.o.): -3.9%
- % reduction of granuloma Na+ ([2]; 15 mg.kg^-1 p.o.): 5.9%
- % reduction of granuloma Wet weight ([2]; 15 mg.kg^-1 p.o.): 2.7%
- Body Weight change ([2]; 15 mg.kg^-1 p.o.): +13.3 ± 2.6 g
- rats that died under anaesthesia ([2]; 15 mg.kg^-1 p.o., 2 control rats also died): 1 rat

SMILES: COc1ccc2c(c1)c(CC(=O)O)c(C)n2C(=O)c1ccc(Cl)cc1 [Indomethacin, reference compound]
- Plasma fibrinogen % change (reduction) ([1]; oral 3 μMol/Kg): -30%
- Plasma Fibrinogen [5]: 978 ± 100 mg/dL
- Change in Body Weight ([5]; day 28 minus day 22): 25.6 ± 3.1 g
- Change in Paw Volume ([5]; day 28 minus day 22, both hind paws): -1.22 ± 0.15 mL

SMILES: CCCCCCCCCOc1ccccc1/C=C/C(C)=C/C=C/C(C)=C/C(=O)O [drawing 5]
- change in vivo at 76 µmol/kg ([1]; oral 76 μMol/Kg, read-out: % Reduction in Paw Volume, Left): -58%
- change in vivo at 76 µmol/kg ([1]; oral 76 μMol/Kg, read-out: % Reduction in Paw Volume, Right): -43%
- Plasma fibrinogen % change (reduction) ([1]; oral 76 μMol/Kg): -55%
- Body Weight Gain ([1]; oral 76 μMol/Kg): +27 g

SMILES: CC1=C(/C=C/C(C)=C/C=C/C(C)=C\C(=O)O)C(C)(C)CCC1 [reference compound]
- change in vivo at 60 µmol/kg ([1]; oral 60 μMol/Kg, read-out: % Reduction in Paw Volume, Left): -49%
- change in vivo at 60 µmol/kg ([1]; oral 60 μMol/Kg, read-out: % Reduction in Paw Volume, Right): -33%
- Plasma fibrinogen % change (reduction) ([1]; oral 60 μMol/Kg): -18%
- Body Weight Gain ([1]; oral 60 μMol/Kg): -7 g
